Reference: article PMC8951750, “In Vitro Anticancer and Cancer-Preventive Activity of New Triterpene Glycosides from the Far Eastern Starfish Solaster pacificus” (Marine Drugs, 2022)
Several values for one entry are separate records, joined by “and”; a condition that tells them apart may be missing. Equal values may be shown once. Read-outs that look alike come from different tables or passages of the source.

Legend:
[1] = test system: Human erythrocytes (O(I)+); test: Hemolysis assay; format: cell-based; conditions: 1 h, 37 °C, PBS pH 7.4
Method: Human erythrocytes (O(I)+) were obtained from Vladivostok blood transfusion station. Erythrocytes were centrifuged with PBS (pH 7.4) for 5 min at 4 °C by 450× g on a LABOFUGE 400R (Heraeus, Hanau, Germany) centrifuge three times. Then, the residue of erythrocytes was resuspended in ice-cold PBS (pH 7.4) to a final optical density of 2.0 at 700 nm and kept on ice. For the hemolytic assay, 180 µL of erythrocyte suspension was mixed with 20 µL of Cucumarioside A2-2 (positive control) and investigated compounds at concentrations range of 0.1, 0.5, 1, 5, 10 µM in V-bottom 96-well plates. After 1 h of incubation at 37 °C, plates were centrifuged at 900× g for 10 min on an LMC-3000 (Biosan, Riga, Latvia) laboratory centrifuge. Then, we carefully selected 100 µL of supernatant and transferred it to new flat plates, respectively. Lysis of erythrocytes was determined by measuring the concentration of hemoglobin in the supernatant with a microplate photometer Multiskan FC (Thermo Fisher Scientific, Waltham, MA, USA) at 570 nm. The effective dose causing 50% of erythrocytes hemolysis (ED50) was calculated using the computer program SigmaPlot 10.0. All experiments were made in triplicate, p < 0.01.

JB6 Cl41 cells [2] = test: Soft agar assay, TPA-induced neoplastic cell transformation; format: cell-based, mouse; conditions: compound 0.1 µM, TPA 10 ng/mL, soft agar, 2 weeks, vs positive control; for inhibition at 0.1 µM: Mus musculus, JB6 Cl41, 336 h, read-out: inhibition of TPA-induced neoplastic transformation of JB6 Cl41 cells
Method: (§1) JB6 Cl41 cells (2.4 × 10^4) were exposed to epidermal growth factor (EGF) (1 ng/mL) or phorbol 12-myristate 13-acetate (TPA) (10 ng/mL) and treated either with DMSO (control) or the triterpene glycosides 1–9 from S. pacificus (0.1, 0.5, and 1 µM) in 1 mL of 0.3% basal medium Eagle (BME) agar containing 10% FBS, 2 mM L-glutamine, and 25 µg/mL gentamicin (agar mix). The cultures were maintained in a humidified atmosphere with 5% CO2 at 37 °C for 14 days, and the cell’s colonies were scored using a microscope, Motic AE 20 (XiangAn, Xiamen, China), and the ImageJ software bundled with 64-bit Java 1.8.0_112 (NIH, Bethesda, MD, USA). To determine the effect of investigated compounds on neoplastic cell transformation induced by ionizing radiation (X-ray or UVB), JB6 Cl41 cells (3 × 10^5/dish) were seeded in 60 mm dishes and cultured for 24 h at 37 °C in 5% CO2 incubator. Then, the cells were exposed to X-rays (X-ray system XPERT 80 (KUB Technologies, Inc, Milford, CT, USA)) at dose of 0.5 Gy or UVB (wavelengths below 312 nm) (Bio-Link UV irradiation system, Vilber, France) at dose of 0.3 J/cm^2 three times a week for 3 weeks. Irradiated JB6 Cl41 cells (2.4 × 10^4) were treated either with DMSO (control) or the triterpene glycosides 1–9 from S. pacificus (0.1, 0.5, and 1 µM) in 1 mL of agar mix. The cultures were maintained in a humidified atmosphere with 5% CO2 at 37 °C for 14 days, and the cell’s colonies were scored using a microscope, Motic AE 20 (XiangAn, Xiamen 361101, China), and the ImageJ software bundled with 64-bit Java 1.8.0_112 (NIH, Bethesda, MD, USA).

[3] = test system: human melanoma cells RPMI-7951; test: Cell viability, MTS assay, RPMI-7951; format: cell-based; conditions: for SI (selectivity index) RPMI-7951: IC50 JB6 Cl41 / IC50 RPMI-7951; for IC50: read-out: IC50, cell viability RPMI-7951, MTS assay, 24 h
Method: (§2) MTS assay was used to measure the cell viability of tested normal and cancer cells. Cells were seeded into 96-well plates (“Jet Biofil”, Guangzhou, China) at density of 1.0 × 10^4/200 µL for 24 h at 37 °C in a 5% CO2 incubator. Then, cell monolayer was treated either with DMSO (control) or various concentrations of the triterpene glycosides 1–9 from S. pacificus (0.1, 0.5, 2.5, 12.5, 62.5 µM) in fresh appropriate culture medium for 24 h. Subsequently, the cells were incubated with 15 µL of 3-(4,5-dimethylthiazol-2-yl)-5-(3-carboxymethoxyphenyl)-2-(4-sulfophenyl)-2H-tetrazolium (MTS reagent) (“Promega”, Madison, WI, USA) for 3 h, and the absorbance of each well was measured at 490/630 nm using Power Wave XS microplate reader (“BioTek”, Wynusky, VT, USA). The concentration at which the compounds exert half of their maximal inhibitory effect on cell viability (IC50) was calculated by the AAT-Bioquest® online calculator [39]. The selectivity index (SI) was calculated as described previously using the following formula SI = IC50 of the compounds in normal cell (JB6 Cl41)/IC50 of the same compounds in human melanoma cell lines (SK-MEL-2, SK-MEL-28, or RPMI-7951).

[4] = test system: human melanoma cells SK-MEL-28; test: Cell viability, MTS assay, SK-MEL-28; format: cell-based; conditions: for SI (selectivity index) SK-MEL-28: IC50 JB6 Cl41 / IC50 SK-MEL-28; for IC50: read-out: IC50, cell viability SK-MEL-28, MTS assay, 24 h
Method: as §2

[5] = test system: non-cancerous mouse epidermal cells JB6 Cl41; test: Cell viability, MTS assay, JB6 Cl41; format: cell-based
Method: as §2

JB6 Cl41 cells [6] = test: Soft agar assay, UVB-induced neoplastic cell transformation; format: cell-based, mouse; conditions: compound 0.1 µM, UVB 0.3 J/cm^2 three times a week for 3 weeks, soft agar; for inhibition at 0.1 µM: Mus musculus, JB6 Cl41, light or radiation study, 504 h, read-out: inhibition of UVB-induced neoplastic cell transformation (decrease of colonies number)
Method: as §1

JB6 Cl41 cells [7] = test: Soft agar assay, X-ray-induced neoplastic cell transformation; format: cell-based, mouse; conditions: compound 0.1 µM, X-rays 0.5 Gy three times a week for 3 weeks, soft agar; for inhibition at 0.1 µM: Mus musculus, JB6 Cl41, 504 h, read-out: inhibition of X-ray-induced cell transformation (JB6 Cl41 colonies formation)
Method: as §1

SK-MEL-2 cells = test: Soft agar assay, colony formation of cancer cells; format: cell-based, human; conditions: compound 0.1 µM, 14 days
Method: SK-MEL-2 cells (2.4 × 10^4) were treated either with DMSO (control) or the triterpene glycosides 1–9 from S. pacificus (0.1 µM) in 1 mL of agar mix. After 14 days, colonies of cancer cells were scored as described above.

JB6 Cl41 cells [8] = test: Soft agar assay, EGF-induced neoplastic cell transformation; format: cell-based, mouse; conditions: compound 0.1 µM, EGF 1 ng/mL, soft agar, 2 weeks, vs positive control; for inhibition at 0.1 µM: Mus musculus, JB6 Cl41, 336 h, read-out: inhibition of EGF-induced neoplastic transformation of JB6 Cl41 cells
Method: as §1

[9] = test system: human melanoma cells SK-MEL-2; test: Cell viability, MTS assay, SK-MEL-2; format: cell-based
Method: as §2

[10] = Mus musculus, JB6 Cl41, 24 h, MTS assay, 24 h, normal cells; read-out: IC50, cell viability JB6 Cl41
[11] = Homo sapiens, SK-MEL-2, 24 h, MTS assay, 24 h; read-out: IC50, cell viability SK-MEL-2
[12] = MTS assay, 24 h; read-out: IC50, cell viability SK-MEL-2

SMILES | ED50, effective dose causing 50% of erythrocytes hemolysis [1] | SI (selectivity index) RPMI-7951 [3] | SI (selectivity index) SK-MEL-28 [4] | decrease of colonies number of SK-MEL-2 cells (colony formation) (SK-MEL-2 cells) | SI (selectivity index) SK-MEL-2 ([9]; IC50 JB6 Cl41 / IC50 SK-MEL-2) | inhibition at 0.1 µM (JB6 Cl41 cells [2]) | IC50 ([3]; Homo sapiens, RPMI-7951, 24 h) | IC50 ([4]; Homo sapiens, SK-MEL-28, 24 h) | IC50 [5, 10] | inhibition at 0.1 µM (JB6 Cl41 cells [6]) | inhibition at 0.1 µM (JB6 Cl41 cells [7]) | inhibition at 0.1 µM (JB6 Cl41 cells [8]) | IC50 [9, 11] | IC50 [9, 12] | also measured
C=C(C)CCCC1(C)OC(=O)C23CCC4C(=CCC5C(C)(C)C(OC6OCC(OS(=O)(=O)[O-])C(O)C6OC6OC(C)C(OC7OC(CO)C(O)C(OC8OC(CO)C(O)C(OC)C8O)C7O)C(O)C6OC6OCC(O)C(O)C6O)CCC45C)C2(C)CC(=O)C13.[Na+] (stereo not drawn) [Cucumarioside A2-2, reference compound] | 0.95 ± 0.04 µM | – | – | – | – | – | – | – | – | – | – | – | – | – | –
COC1C(O)COC(OC2C(O)C(COS(=O)(=O)O)OC(OC3C(C)OC(OC4C(OC5CCC6(C)C7CCC89C(=O)OC(C)(C=CC=C(C)C)C8C(OC(C)=O)CC9(C)C7=CCC6C5(C)C)OCC(O)C4O)C(O)C3O)C2O)C1O [Compound 6, 3β-O-{3-O-methyl-β-D-xylopyranosyl-(1→3)-6-O-6-sulfoxy-β-D-glucopyranosyl-(1→4)-β-D-quinovopyranosyl-(1→2)-β-D-xylopyranosyl}-16β-acetoxyholosta-7,22Z,24-triene] | 1.68 µM and 1.68 ± 0.14 µM | 0.2 | 0.8 | 40% | 9.5 | – | – | – | – | – | – | – | – | – | inhibition of TPA-induced neoplastic transformation of JB6 Cl41 cells (JB6 Cl41 cells [2]; 0.1 µM): 61%; IC50 [3]: 32.4 ± 0.5 µM; IC50 [4]: 8.2 ± 0.2 µM; IC50 ([5]; read-out: IC50, cell viability JB6 Cl41; MTS assay, 24 h, normal cells): 6.6 ± 0.3 µM; inhibition of UVB-induced neoplastic cell transformation (decrease of colonies number) (JB6 Cl41 cells [6]; 0.1 µM): 10%; inhibition of X-ray-induced cell transformation (JB6 Cl41 colonies formation) (JB6 Cl41 cells [7]; 0.1 µM): 23%; inhibition of EGF-induced neoplastic transformation of JB6 Cl41 cells (JB6 Cl41 cells [8]; 0.1 µM): 44%; IC50 ([9]; read-out: IC50, cell viability SK-MEL-2; MTS assay, 24 h): 0.69 ± 0.03 µM
COC1C(O)C(CO)OC(OC2C(O)C(CO)OC(OC3C(C)OC(OC4C(OC5CCC6(C)C7CCC89C(=O)OC(C)(C=CC=C(C)C)C8C(OC(C)=O)CC9(C)C7=CCC6C5(C)C)OCC(O)C4O)C(OC4OCC(O)C(O)C4O)C3O)C2O)C1O [Compound 1, 3β-O-{3-O-methyl-β-D-glucopyranosyl-(1→3)-β-D-glucopyranosyl-(1→4)-[β-D-xylopyranosyl-(1→2)]-β-D-quinovopyranosyl-(1→2)-β-D-xylopyranosyl}-16β-acetoxyholosta-7,22E,24-triene] | 2.03 µM and 2.03 ± 0.19 µM | 0.24 | 0.8 | 64% | 9.1 | 98% | 26.7 ± 0.1 µM | 8.4 ± 0.07 µM | 6.4 ± 0.05 µM | 96% | 94% | 94% | < 1 µM | 0.7 ± 0.07 µM | –
C=C(C)C1C2CC3(C)C4=CCC5C(C)(C)C(OC6OCC(O)C(O)C6OC6OC(C)C(OC7OC(COS(=O)(=O)O)C(O)C(OC8OCC(O)C(OC)C8O)C7O)C(O)C6O)CCC5(C)C4CCC13C(=O)O2 [Compound 9, 3β-O-{3-O-methyl-β-D-xylopyranosyl-(1→3)-6-O-6-sulfoxy-β-D-glucopyranosyl-(1→4)-β-D-quinovopyranosyl-(1→2)-β-D-xylopyranosyl}-23,24,25,26,27-pentanor-5α-lanosta-7,20(22)-diene-18(16)-lactone] | 2.85 ± 0.14 µM | 0.23 | 0.32 | – | 9.9 | 42% | 32.4 ± 0.08 µM | 23.3 ± 0.6 µM | 7.4 ± 0.8 µM | 11% | 28% | 34% | < 1 µM | 0.75 ± 0.03 µM | –
CC(=O)OC1CC2(C)C3=CCC4C(C)(C)C(OC5OCC(O)C(O)C5OC5OC(C)C(OC6OC(CO)C(O)C(O)C6O)C(O)C5OC5OCC(O)C(O)C5O)CCC4(C)C3CCC23C(=O)OC(C)(C=CC=C(C)C)C13 [Compound 2, 3β-O-{β-D-glucopyranosyl-(1→4)-[β-D-xylopyranosyl-(1→2)]-β-D-quinovopyranosyl-(1→2)-β-D-xylopyranosyl}-16β-acetoxyholosta-7,22E,24-triene] | 4.08 ± 0.36 µM | 0.87 | 1.0 | 3% | 0.8 | 18% | 36.4 ± 0.2 µM | 29 ± 0.02 µM | – | – | < 15% | 25% | 37.6 ± 0.2 µM | – | IC50 ([5]; MTS assay, 24 h, normal cells; read-out: IC50, cell viability JB6 Cl41): 31.5 ± 4.1 µM; inhibition of UVB-induced neoplastic cell transformation (decrease of colonies number) (JB6 Cl41 cells [6]): not effective
